Structures are written as SMILES.

For one test, the system named is Botrytis cinerea. The experiment in a line: In vivo preventive test on Botrytis cinerea (grey mould). The note with it: 500 ppm of active ingredient, preventive spray on gherkin or cabbage, evaluated 4 to 5 days after inoculation, read-out: efficacy. The method in brief: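 Young gherkin or cabbage plants were sprayed with compound in DMSO/acetone/Tween 80 diluted in water, then inoculated 24 hours later with a B. cinerea spore suspension. Incubation lasted 4 to 5 days: gherkin at 17° C., 90% relative humidity; cabbage at 20° C., 100% relative humidity.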

The next test deals with Pyrenophora teres. The experiment in a line: In vivo preventive test on Pyrenophora teres (net blotch on barley). The note with it: 240 h, 500 ppm of active ingredient, preventive spray on barley, evaluated 10 days after inoculation, read-out: efficacy. The procedure, abridged: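 Young barley plants sprayed preventively with compound formulated in DMSO/acetone/Tween 80 and diluted in water; controls got solvent only. Inoculated 24 hours later with P. teres spore suspension, then held 48 hours at 20° C, 100% RH and 8 days at 20° C, 70-80% RH.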

Test [1] concerns Colletotrichum lindemuthianum. The experiment in a line: In vivo preventive test on Colletotrichum lindemuthianum (leaf spot on bean). The note with it: 168 h, 500 ppm of active ingredient, preventive spray on bean, evaluated 7 days after inoculation, read-out: efficacy. The method in brief:
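Young bean plants sprayed with compound in DMSO/acetone/Tween 80 diluted in water; solvent-only controls. Inoculated 24 h later with C. lindemuthianum spore suspension, then kept 24 h at 20 °C/100% RH and 6 days at 20 °C/90% RH.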

As to `O=C(NCC(F)c1ccc(Cl)cc1Cl)c1c(Oc2cccc(Cl)c2F)nnc2c1CCC2` (stereo not drawn) [I-188], the pest or weed control at 500 ppm (in the test on Botrytis cinerea; with Pyrenophora teres; in test [1]) was 90 to 100% in each case.

Turning to `O=C(NCC(F)(F)c1ccc(Br)cc1Cl)c1c(Oc2cccc(C(F)(F)F)c2)nnc2c1CCC2` [I-212], the pest or weed control at 500 ppm (in the test with Botrytis cinerea; with Pyrenophora teres; in test [1]) was 90 to 100% each time.

On to `O=C(NCC(F)(F)c1ccc(Br)cc1Cl)c1c(Oc2cccc(Cl)c2F)nnc2c1CCC2` [I-213], for which the pest or weed control at 500 ppm with Botrytis cinerea lay in the range of 90 to 100%; with Pyrenophora teres, 80 to 89%; in test [1], 90 to 100%.

For `Cc1ccc(C(F)(F)CNC(=O)c2c(Oc3cccc(Br)c3)nnc3ccccc23)c(C)c1` [I-216], the pest or weed control at 500 ppm is 90 to 100% in the test on Botrytis cinerea, 70 to 79% in the test on Pyrenophora teres and 90 to 100% in test [1].

Turning to `Cc1ccc(C(F)(F)CNC(=O)c2c(Oc3cccc(C(F)F)c3)cnc3ccccc23)c(C)c1` [I-220], the results for the pest or weed control at 500 ppm (in the test on Botrytis cinerea; in the test with Pyrenophora teres; in test [1]) were 90 to 100%, 70 to 79% and 80 to 89%, respectively.

Consider `Cc1cccc(Oc2cnc3ccccc3c2C(=O)NCC(F)(F)c2ccc(C)cc2C)c1` [I-222], for which the figures for the pest or weed control at 500 ppm (with Botrytis cinerea; with Pyrenophora teres; in test [1]) were 90 to 100%, 80 to 89% and 70 to 79%, respectively.

In the case of `Cc1ccc(C(F)(F)CNC(=O)c2c(Oc3cccc(Br)c3F)nnc3ccccc23)c(C)c1` [I-227], the pest or weed control at 500 ppm was 90 to 100% in the test with Botrytis cinerea, 70 to 79% in the test on Pyrenophora teres and 80 to 89% in test [1].

Regarding `O=C(NCC(F)(F)c1ccc(Cl)cc1Cl)c1c(Oc2cccc(C(F)(F)F)c2)nnc2c1COCC2` [I-228], the pest or weed control at 500 ppm was 90 to 100% in the test with Botrytis cinerea, 70 to 79% in the test on Pyrenophora teres and 90 to 100% in test [1].

`O=C(NCC(F)(F)c1ccc(Br)cc1Cl)c1c(Oc2cccc(C(F)(F)F)c2)nnc2c1COCC2` [I-229]: the results for the pest or weed control at 500 ppm (in the test on Botrytis cinerea; in the test on Pyrenophora teres; in test [1]) were 90 to 100%, 70 to 79% and 90 to 100%, respectively.

As for `Cc1ccc(C(F)(F)CNC(=O)c2c(Oc3cccc(C(F)(F)F)c3)nnc3c2CCCC3)c(Cl)c1` [I-239], the pest or weed control at 500 ppm (in the test on Botrytis cinerea; with Pyrenophora teres; in test [1]) was 90 to 100% each time.

`Cc1ccc(C(F)(F)CNC(=O)c2c(Oc3cccc(C(F)F)c3)nnc3c2CCCC3)c(Cl)c1` [I-243]: the pest or weed control at 500 ppm (in the test with Botrytis cinerea; in the test on Pyrenophora teres; in test [1]) was 90 to 100% each time.

Turning to `Cc1ccc(C(F)(F)CNC(=O)c2c(Oc3cccc(C(F)(F)F)c3)nnc3cc(C)ccc23)c(Cl)c1` [I-245], the pest or weed control at 500 ppm in the test on Botrytis cinerea was in the range of 90 to 100%; in the test on Pyrenophora teres, 90 to 100%; in test [1] it was 80 to 89%.

In the case of `Cc1ccc2c(C(=O)NCC(F)(F)c3ccc(C)c(C)c3)c(Oc3cccc(C(F)(F)F)c3)nnc2c1` [I-246], the pest or weed control at 500 ppm lay in the range of 90 to 100% with Botrytis cinerea, 80 to 89% with Pyrenophora teres and 80 to 89% in test [1].

These data come from US20230192617A1, “AZABICYCLIC(THIO)AMIDES AS FUNGICIDAL COMPOUNDS” (Bayer CropScience Aktiengesellschaft, priority 2020, published 2023).
